For 27 molecules, EC50 results are on record in patent US20250073338A1, “CONJUGATE COMPOUNDS AND COMPOSITIONS” (REZUBIO PHARMACEUTICALS CO., LTD, priority 2023, published 2025).

The assay concerns the target T1, GPR40 (Homo sapiens, UniProt O14842).
T1 construct: expressed in transfected cells
Kind of assay: IP1 accumulation assay in HEK293 cells stably expressing GPR40. The note with it: HEK293 cells stably expressing GPR40, 2 hours at 37° C. It is filed as cell-based. Here is the method: IP1 accumulation assay was used to evaluate the potency of compounds. HEK293 cells stably expressing GPR40 were cultured in 5% CO2 incubator (ThermoFisher) in maintenance media (Dulbecco's modified Eagle's medium with 4.5 g/L of glucose, 10% fetal bovine serum, 100 μg/mL Hygromycin, and Penicillin (100 U/mL)/Streptomycin (100 μg/mL)) till 100% confluency. Cells were harvested freshly, spun down at 300× g for 5 min, and resuspended in pre-warmed 1× stimulant buffer from Cisbio IP-One HTRF Detection kit (Cisbio). Cell density was adjusted to 2.0×10^6 cells/mL. DMSO was used as blank control and AMG-1638 (CAS #: 1142214-62-7) as positive control. Compounds were prepared at 10 mM in DMSO and 5 nL of 3× serially diluted compounds (10 concentrations) were added to each well of the 384-LDV assay plate (Corning) by using ECHO 550 (Labcyte). Five μL of cells in suspension were transferred into each well by using Multidrop Combi Reagent Dispenser (ThermoFisher). Assay plate was then sealed and incubated at 37° C. for 2 hours. IP-d2 reagent and anti-IP1 reagent were prepared following the manual (Cisbio). Five μL of IP1-d2 and then 5 μL of anti-IP1 antibody was added to each well sequentially. Assay plate was incubated at room temperature for 60 min and then read at 665 nm/615 nm on an Envision plate reader (PerkinElmer). The ratio of values obtained at 665 nm and 615 nm was used for calculation of IP1 accumulation: % Effect=(Ratiosample−Ratioblank)/(RatioAMG-1638−Ratioblank)×100. Dose curve was fitted and EC50 of each compound was calculated by using XLFit.

Counter-ions that a name gives are not always drawn. A value given as a limit tells only on which side of the number the result lay.

T1 sequence (O14842 whole entry): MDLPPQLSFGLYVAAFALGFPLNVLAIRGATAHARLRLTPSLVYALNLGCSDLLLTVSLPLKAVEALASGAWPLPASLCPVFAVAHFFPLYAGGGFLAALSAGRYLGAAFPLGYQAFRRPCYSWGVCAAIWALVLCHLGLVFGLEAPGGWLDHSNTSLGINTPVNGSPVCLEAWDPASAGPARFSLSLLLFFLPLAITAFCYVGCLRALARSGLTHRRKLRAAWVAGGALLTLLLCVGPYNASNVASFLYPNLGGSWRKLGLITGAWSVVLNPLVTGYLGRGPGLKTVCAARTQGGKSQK

Regarding `COc1ccc(C(=O)N(CC(C)(C)CCCCCCCCCCCCCCCCCCCC(=O)NCCN(CCC(=O)NCCN)CCC(=O)NCCN)c2cccc(C)n2)c(N2CCC(COc3cc([C@@H](CC(=O)O)C4CC4)ccn3)CC2)c1` [Example 1], the EC50 – broadly, the concentration giving half of the maximal effect – amounted to 1230 pM.

On to `COc1ccc(C(=O)N(CC(C)(C)CCCCCCCCCCCCCCCCCCCC(=O)NCCN(CC(=O)NCCN)CC(=O)NCCN)c2cccc(C)n2)c(N2CCC(COc3cc([C@@H](CC(=O)O)C4CC4)ccn3)CC2)c1` [Example 2], for which the EC50 was found to be 2000 pM.

In turn, `COc1ccc(C(=O)N(CC(C)(C)CCCCCCCCCCCCCCCCCCCC(=O)NCC[N+](C)(CCC(=O)NCCN)CCC(=O)NCCN)c2cccc(C)n2)c(N2CCC(COc3cc([C@@H](CC(=O)O)C4CC4)ccn3)CC2)c1` [Example 3] gave an EC50 of 1790 pM.

For `COc1ccc(C(=O)N(CC(C)(C)CCCCCCCCCCCCCCCCCCCC(=O)NCCCN(CC(=O)NCCN)CC(=O)NCCN)c2cccc(C)n2)c(N2CCC(COc3cc([C@@H](CC(=O)O)C4CC4)ccn3)CC2)c1` [Example 5], the EC50 came out at 1730 pM.

In turn, `COc1ccc(C(=O)N(CC(C)(C)CCCCCCCCCCCCCCCCCCCC(=O)NCCC[N+](C)(CC(=O)NCCN)CC(=O)NCCN)c2cccc(C)n2)c(N2CCC(COc3cc([C@@H](CC(=O)O)C4CC4)ccn3)CC2)c1` [Example 6] gave an EC50 of 840 pM.

`COc1ccc(C(=O)N(CC(C)(C)CCCCCCCCCCCCCCCCCC(=O)NCC[N+](C)(CC(=O)NCCN)CC(=O)NCCN)c2cccc(C)n2)c(N2CCC(COc3cc([C@@H](CC(=O)O)C4CC4)ccn3)CC2)c1` [Example 7] registered an EC50 of 530 pM.

As for `COc1ccc(C(=O)N(CC(C)(C)CCCCCCCCCCCCCCCCCCCC(=O)NCCN(CCCC(=O)NCCN)CCCC(=O)NCCN)c2cccc(C)n2)c(N2CCC(COc3cc([C@@H](CC(=O)O)C4CC4)ccn3)CC2)c1` [Example 8], the EC50 worked out at 280 pM.

In the case of `COc1ccc(C(=O)N(CC(C)(C)CCCCCCCCCCCCCCCCCCCC(=O)NCC[N+](C)(CCCC(=O)NCCN)CCCC(=O)NCCN)c2cccc(C)n2)c(N2CCC(COc3cc([C@@H](CC(=O)O)C4CC4)ccn3)CC2)c1` [Example 9], the EC50 was 350 pM.

In the case of `COc1ccc(C(=O)N(CC(C)(C)CCCCCCCCCCCCCCCCCCCCC(=O)NCC[N+](C)(CC(=O)NCCN)CC(=O)NCCN)c2cccc(C)n2)c(N2CCC(COc3cc([C@@H](CC(=O)O)C4CC4)ccn3)CC2)c1` [Example 10], the EC50 was determined as 3650 pM.

With `COc1ccc(C(=O)N(CC(C)(C)CCCCCCCCCCCCCCCCCCCCCC(=O)NCC[N+](C)(CC(=O)NCCN)CC(=O)NCCN)c2cccc(C)n2)c(N2CCC(COc3cc([C@@H](CC(=O)O)C4CC4)ccn3)CC2)c1` [Example 11, (S)-2-((2-aminoethyl)amino)-N-(2-((2-aminoethyl)amino)-2-oxoethyl)-N-(2-(24-(2-(4-(((4-(2-carboxy-1-cyclopropylethyl)pyridin-2-yl)oxy)methyl)piperidin-1-yl)-4-methoxy-N-(6-methylpyridin-2-yl)benzamido)-23,23-dimethyltetracosanamido)ethyl)-N-methyl-2-oxoethanaminium trifluoroacetate], the EC50 was determined as 1340 pM.

`COc1ccc(C(=O)N(CC(C)(C)CCCCCCCCCCCCCCCCCCCC(=O)NCCCN(C)CC(=O)NCCN)c2cccc(C)n2)c(N2CCC(COc3cc([C@@H](CC(=O)O)C4CC4)ccn3)CC2)c1` [Example 15] had an EC50 of 670 pM.

`COc1ccc(C(=O)N(CC(C)(C)CCCCCCCCCCCCCCCCCCCC(=O)NCCC[N+](C)(C)CC(=O)NCCN)c2cccc(C)n2)c(N2CCC(COc3cc([C@@H](CC(=O)O)C4CC4)ccn3)CC2)c1` [Example 16] yielded an EC50 of 480 pM.

As to `C[C@H](C(=O)O)[C@H](c1ccc2c(c1)O[C@@H](C1CCN(Cc3cc(CCCCCCCCCCCCCCCCCCCC(=O)NCCC[N+](C)(CC(=O)NCCN)CC(=O)NCCN)ccc3OC(F)(F)F)CC1)CC2)C1CC1` [Example 20], the EC50 stood at 3570 pM.

`COc1ccc(C(=O)N(CC(C)(C)CCCCCCCCCCCCCCCCCC[N+]23CCN(CC2)CC3)c2cccc(C)n2)c(N2CCC(COc3cc([C@@H](CC(=O)O)C4CC4)ccn3)CC2)c1` [Example 22]: the EC50 stood at 360 pM.

Consider `COc1ccc(C(=O)N(CC(C)(C)CCCCCCCCCCCCCCCCCCNC(=O)C[N+]23CCN(CC2)CC3)c2cccc(C)n2)c(N2CCC(COc3cc([C@@H](CC(=O)O)C4CC4)ccn3)CC2)c1` [Example 23, (S)-1-(2-((20-(2-(4-(((4-(2-carboxy-1-cyclopropylethyl)pyridin-2-yl)oxy)methyl)piperidin-1-yl)-4-methoxy-N-(6-methylpyridin-2-yl)benzamido)-19,19-dimethylicosyl)amino)-2-oxoethyl)-1,4-diazabicyclo[2.2.2]octan-1-ium trifluoroacetate], for which the midpoint of the response, the EC50, lay at 2800 pM.

The molecule `COc1ccc(C(=O)N(CC(C)(C)CCCCCCCCCCCCCCCCCC[N+]2(C)CCN(C)CC2)c2cccc(C)n2)c(N2CCC(COc3cc([C@@H](CC(=O)O)C4CC4)ccn3)CC2)c1` [Example 24] gave an EC50 of 1150 pM.

Take `COc1ccc(C(=O)N(CC(C)(C)CCCCCCCCCCCCCCCCCC[N+](C)(C)C)c2cccc(C)n2)c(N2CCC(COc3cc([C@@H](CC(=O)O)C4CC4)ccn3)CC2)c1` [Example 25]: the EC50 is 450 pM.

For `CC[N+](CC)(CC)CCCCCCCCCCCCCCCCCCC(C)(C)CN(C(=O)c1ccc(OC)cc1N1CCC(COc2cc([C@@H](CC(=O)O)C3CC3)ccn2)CC1)c1cccc(C)n1` [Example 26], the half-maximal effective concentration (EC50) stood at 360 pM.

The molecule `COc1ccc(C(=O)N(CC(C)(C)CCn2cc(CCCCCCCCCCCCCCCCCC(=O)NCCNC(=O)C(CCCCN(CCCN)CCCN)NCCCN)nn2)c2cccc(C)n2)c(N2CCC(COc3cc([C@@H](CC(=O)O)C4CC4)ccn3)CC2)c1` (stereo partly drawn) [Example 27] showed an EC50 of 710 pM.

For the molecule `COc1ccc(C(=O)N(CC(C)(C)CCCCCCCCCCCCCCCCCC(=O)NCCCC[N+]23CCN(CC2)CC3)c2cccc(C)n2)c(N2CCC(COc3cc([C@@H](CC(=O)O)C4CC4)ccn3)CC2)c1` [Example 28], the EC50 was determined as 490 pM.

Molecule `COc1ccc(C(=O)N(CC(C)(C)CCCCCCCCCCCCCCCCCC(=O)NCCCC[N+](C)(C)C)c2cccc(C)n2)c(N2CCC(COc3cc([C@@H](CC(=O)O)C4CC4)ccn3)CC2)c1` [Example 29] came in with an EC50 of 320 pM.

In turn, `CC[N+](CC)(CC)CCCCNC(=O)CCCCCCCCCCCCCCCCCC(C)(C)CN(C(=O)c1ccc(OC)cc1N1CCC(COc2cc([C@@H](CC(=O)O)C3CC3)ccn2)CC1)c1cccc(C)n1` [Example 30] yielded an EC50 of 430 pM.

`COc1ccc(C(=O)N(CC(C)(C)CCCCCCCCCCCCCCCCCC(=O)NCc2ccccc2)c2cccc(C)n2)c(N2CCC(COc3cc([C@@H](CC(=O)O)C4CC4)ccn3)CC2)c1` [Example 31]: the 50% effective concentration (EC50) came to 163000 pM.

As to `CCCCNC(=O)CCCCCCCCCCCCCCCCCC(C)(C)CN(C(=O)c1ccc(OC)cc1N1CCC(COc2cc([C@@H](CC(=O)O)C3CC3)ccn2)CC1)c1cccc(C)n1` [Example 32], the midpoint of the response, the EC50, lay at 385000 pM.

`COc1ccc(C(=O)N(CC(C)(C)CCn2cc(CCCCCCCCCCCCCCCCCC(=O)O)nn2)c2cccc(C)n2)c(N2CCC(COc3cc([C@@H](CC(=O)O)C4CC4)ccn3)CC2)c1` [Example 33] showed an EC50 greater than 152000 pM.

In the case of `COc1ccc(C(=O)N(CC(C)(C)CCCCCCCCCCCCCCCCCC(=O)NCCC[N+](C)(CC(=O)[O-])CC(=O)O)c2cccc(C)n2)c(N2CCC(COc3cc([C@@H](CC(=O)O)C4CC4)ccn3)CC2)c1` (stereo partly drawn) [Example 35], the EC50 amounted to 630 pM.

In turn, `COc1ccc(C(=O)N(CC(C)(C)CCCCCCCCCCCCCCCCCC(=O)NCCC[N+](C)(C)CCCS(=O)(=O)[O-])c2cccc(C)n2)c(N2CCC(COc3cc([C@@H](CC(=O)O)C4CC4)ccn3)CC2)c1` [Example 36] came in with an EC50 of 780 pM.
